Test results taken from patent publication US8946225B2, “Derivatives of 2H pyridazin-3-ones, their preparation and their use as SCD-1 inhibitors” (Pierre Fabre Medicament, priority 2009, dated 2015).

Key:
SCD-1 = target: T1, SCD-1 (Homo sapiens, UniProt O00767); assay: Human enzymatic activity of SCD-1 from microsomes of HepG2 cells (conversion of [14C] stearic acid to oleic acid, HPLC); format: biochemical; settings: microsomal fraction of HepG2 cells, 62 μM stearic acid, 20 minutes at 37° C., vs vehicle 0.1% DMSO; read-out: HSCD-1 (HEPG2) IC50
T1 construct: addition of 125 μg of microsomal fraction of HepG2 cells; host or cells: HepG2 human hepatocarcinoma cells (microsomal fraction)
T1 sequence (O00767 1-359): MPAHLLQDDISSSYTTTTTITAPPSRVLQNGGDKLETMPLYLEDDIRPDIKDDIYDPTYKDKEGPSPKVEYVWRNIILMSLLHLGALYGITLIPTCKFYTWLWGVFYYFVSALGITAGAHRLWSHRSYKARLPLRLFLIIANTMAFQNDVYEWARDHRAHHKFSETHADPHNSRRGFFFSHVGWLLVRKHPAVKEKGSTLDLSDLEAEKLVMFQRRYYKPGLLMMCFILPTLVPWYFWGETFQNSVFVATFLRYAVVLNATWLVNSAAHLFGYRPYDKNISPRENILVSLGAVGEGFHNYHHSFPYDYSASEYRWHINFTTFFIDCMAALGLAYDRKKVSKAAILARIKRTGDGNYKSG
Protocol: In vitro: Human enzymatic activity of SCD-1 from microsomes of HepG2 cells after treatment with the inhibitor compounds (% inhibition).
HepG2 cells of human hepatocarcinoma (ATCC, HB-8065) are cultured at confluence then trypsinated. The cell residue is solubilized in 10 mM Tris buffer (pH 7.4) sucrose (250 mM) DTT (1 mM) then the cells are lysed by sonication. The microsomes are obtained after centrifuging at 10,000 g for 20 minutes at 4° C. followed by centifrugation of the supernatant at 100,000 g for 60 minutes at 4° C. The residue is solubilized in 10 mM Tris buffer (pH 7.4) sucrose (250 mM) at 4° C. and the microsomal proteins are assayed and stored at −196° C. (liquid nitrogen).
The enzymatic reaction measures the conversion of stearic acid (C18:0 fatty acid) into oleic acid (C18:1 fatty acid) by SCD-1. The enzymatic reaction is initiated by the addition of 125 μg of microsomal fraction of HepG2 cells to tubes (total reaction volume of 500 μl) containing 62 μM stearic acid (45 μM stearic acid and 17 μM [^14C] stearic acid) in 100 mM phosphate buffer (pH 7.16) with 7.2 mM ATP, 0.54 mM CoA, 6 mM MgCl2, 0.8 mM NADH and the inhibitor compound or vehicle (0.1% DMSO). The tubes are incubated for 20 minutes at 37° C. then the enzymatic reaction is halted by the addition of KOH (12%) and saponification for 30 minutes at 80° C. After acidification (3N HCl), the fatty acids are extracted twice with ethyl ether, evaporated under nitrogen before being solubilized in methanol/dichloromethane (3:1). The reaction product (C18:1) is separated from the reaction substrate (C18:0) by HPLC (Perkin Elmer, C18 reverse phase column) coupled with an in-line radioactivity detector (FlowOne). Enzymatic activity is measured in picomoles of stearic acid converted to oleic acid per minute and per mg of protein. For each inhibitor compound, an IC50 value is determined, compared with the reference enzymatic activity (vehicle 0.1% DMSO). Sterculic acid is the reference inhibitor compound (Gomez F. E., Bauman D. E., Ntambi J. M., Fox B. G. Effects of sterculic acid on stearoyl-CoA desaturase in differentiating […] adipocytes. Biochem Biophys Res Commun. 300 316-326 (2003).

SMILES | melting point | IC50 (SCD-1)
Cn1nccc(NCC(=O)N2CCC(Oc3cc(F)cc(C(F)(F)F)c3)CC2)c1=O [Example 3, 4-{2-[4-(3-Fluoro-5-trifluoromethyl-phenoxy)-piperidin-1-yl]-2-oxo-ethylamino}-2-methyl-2H-pyridazin-3-one] | 175 °C | 100 to 1000 nM
Cn1nccc(NCC(=O)N2CCC(Oc3cc(C(F)(F)F)ccc3Cl)CC2)c1=O [Example 4, 4-{2-[4-(2-Chloro-5-trifluoromethyl-phenoxy)-piperidin-1-yl]-2-oxo-ethylamino}-2-methyl-2H-pyridazin-3-one] | 158 °C | 10 to 100 nM
Cn1nccc(NCC(=O)N2CCC(Oc3cc(F)c(F)cc3Br)CC2)c1=O [Example 5, 4-{2-[4-(2-Bromo-4,5-difluoro-phenoxy)-piperidin-1-yl]-2-oxo-ethylamino}-2-methyl-2H-pyridazin-3-one] | 137 °C | 30 to 100 nM
Cn1nccc(NCC(=O)N2CCC(Oc3cc(Br)ccc3Cl)CC2)c1=O [Example 6, 4-{2-[4-(5-Bromo-2-chloro-phenoxy)-piperidin-1-yl]-2-oxo-ethylamino}-2-methyl-2H-pyridazin-3-one] | 160 °C | 3 nM
Cn1nccc(NCC(=O)N2CCC(Oc3ccccc3Cl)CC2)c1=O [Example 7, 4-{2-[4-(2-Chloro-phenoxy)-piperidin-1-yl]-2-oxo-ethylamino}-2-methyl-2H-pyridazin-3-one] | 142 °C | 100 to 1000 nM
Cn1nccc(NCC(=O)N2CCC(Oc3cc(F)ccc3Cl)CC2)c1=O [Example 8, 4-{2-[4-(2-Chloro-5-fluoro-phenoxy)-piperidin-1-yl]-2-oxo-ethylamino}-2-methyl-2H-pyridazin-3-one] | 159 °C | 100 nM
Cn1nccc(NCC(=O)N2CCC(Oc3cc([N+](=O)[O-])ccc3Cl)CC2)c1=O [Example 9, 4-{2-[4-(2-Chloro-5-nitro-phenoxy)-piperidin-1-yl]-2-oxo-ethylamino}-2-methyl-2H-pyridazin-3-one] | 162 °C | 100 to 1000 nM
Cn1nccc(NCC(=O)N2CCC(Oc3ccc(Cl)c(Cl)c3)CC2)c1=O [Example 10, 4-{2-[4-(3,4-Dichloro-phenoxy)-piperidin-1-yl]-2-oxo-ethylamino}-2-methyl-2H-pyridazin-3-one] | 169 °C | 300 to 1000 nM
Cn1nccc(NCC(=O)N2CCC(Oc3ccc(Cl)cc3Cl)CC2)c1=O [Example 11, 4-{2-[4-(2,4-Dichloro-phenoxy)-piperidin-1-yl]-2-oxo-ethylamino}-2-methyl-2H-pyridazin-3-one] | 152 °C | 100 to 300 nM
Cn1nccc(NCC(=O)N2CCC(Oc3cc(Cl)ccc3Cl)CC2)c1=O [Example 12, 4-{2-[4-(2,5-Dichloro-phenoxy)-piperidin-1-yl]-2-oxo-ethylamino}-2-methyl-2H-pyridazin-3-one] | 162 °C | 30 to 100 nM
Cc1ccc(F)cc1OC1CCN(C(=O)CNc2ccnn(C)c2=O)CC1 [Example 14, 4-{2-[4-(5-Fluoro-2-methyl-phenoxy)-piperidin-1-yl]-2-oxo-ethylamino}-2-methyl-2H-pyridazin-3-one] | 176 °C | 100 to 1000 nM
Cc1ccc(C(C)C)cc1OC1CCN(C(=O)CNc2ccnn(C)c2=O)CC1 [Example 16, 4-{2-[4-(5-Isopropyl-2-methyl-phenoxy)-piperidin-1-yl]-2-oxo-ethylamino}-2-methyl-2H-pyridazin-3-one] | 159 °C | 30 to 100 nM

Results, then the compound that gave them:

melting point | IC50 (SCD-1) | SMILES
176 °C | 1000 to 3000 nM | Cn1ncc(OCC(=O)N2CCC(Oc3cc(C(F)(F)F)ccc3Cl)CC2)cc1=O [Example 24, 5-{2-[4-(2-Chloro-5-trifluoromethyl-phenoxy)-piperidin-1-yl]-2-oxo-ethoxy}-2-methyl-2H-pyridazin-3-one]
163 °C | 1000 to 10000 nM | Cn1ncc(OCC(=O)N2CCC(Oc3cc(Cl)ccc3Cl)CC2)cc1=O [Example 25, 5-{2-[4-(2,5-Dichloro-phenoxy)-piperidin-1-yl]-2-oxo-ethoxy}-2-methyl-2H-pyridazin-3-one]
122 °C | 3000 to 10000 nM | Cn1nccc(NCC(=O)N2CC(Oc3ccccc3C(F)(F)F)C2)c1=O [Example 27, 2-Methyl-4-{2-oxo-2-[3-(2-trifluoromethyl-phenoxy)-azetidin-1-yl]-ethylamino}-2H-pyridazin-3-one]
182 °C | ~300 nM | Cn1nccc(NCC(=O)N2CCC(CNc3ccccc3C(F)(F)F)CC2)c1=O [Example 31, 2-Methyl-4-(2-oxo-2-{4-[(2-trifluoromethyl-phenylamino)-methyl]-piperidin-1-yl}-ethylamino)-2H-pyridazin-3-one]
64 °C | 300 to 1000 nM | Cn1nccc(NCC(=O)N2CCC(CNc3cc(C(F)(F)F)ccc3Cl)CC2)c1=O [Example 32, 4-(2-{4-[(2-Chloro-5-trifluoromethyl-phenylamino)-methyl]-piperidin-1-yl}-2-oxo-ethylamino)-2-methyl-2H-pyridazin-3-one]
183 °C | 30 to 100 nM | Cn1nccc(NCC(=O)N2CCC(COc3cc(C(F)(F)F)ccc3Cl)C2)c1=O (centres unmarked) [Example 34, 4-{2-[3-(2-Chloro-5-trifluoromethyl-phenoxymethyl)-pyrrolidin-1-yl]-2-oxo-ethylamino}-2-methyl-2H-pyridazin-3-one]
205 °C | 100 to 1000 nM | Cn1nccc(NC(=O)C(=O)N2CCC(Oc3cc(C(F)(F)F)ccc3Cl)CC2)c1=O [Example 35, 2-[4-(2-Chloro-5-trifluoromethyl-phenoxy)-piperidin-1-yl]-N-(2-methyl-3-oxo-2,3-dihydro-pyridazin-4-yl)-2-oxo-acetamide]
154 °C | 300 to 1000 nM | Cn1nccc(/C=C/C(=O)N2CCC(Oc3cc(C(F)(F)F)ccc3Cl)CC2)c1=O [Example 36, 4-{(E)-3-[4-(2-Chloro-5-trifluoromethyl-phenoxy)-piperidin-1-yl]-3-oxo-propenyl}-2-methyl-2H-pyridazin-3-one]
222 °C | 10 to 100 nM | O=C(CNc1ccn[nH]c1=O)N1CCC(Oc2cc(C(F)(F)F)ccc2Cl)CC1 [Example 40, 4-{2-[4-(2-Chloro-5-trifluoromethyl-phenoxy)-piperidin-1-yl]-2-oxo-ethylamino}-2H-pyridazin-3-one]
60 °C | 100 to 1000 nM | COc1cnn(C)c(=O)c1NCC(=O)N1CCC(Oc2cc(C(F)(F)F)ccc2Cl)CC1 [Example 51, 4-{2-[4-(2-Chloro-5-trifluoromethyl-phenoxy)-piperidin-1-yl]-2-oxo-ethylamino}-5-methoxy-2-methyl-2H-pyridazin-3-one]
148 °C | 30 to 100 nM | Cn1nccc(NC(=O)N2CCC(Oc3cc(C(F)(F)F)ccc3Cl)CC2)c1=O [Example 52, 4-(2-Chloro-5-trifluoromethyl-phenoxy)-piperidine-1-carboxylic acid (2-methyl-3-oxo-2,3-dihydro-pyridazin-4-yl)-amide]
116 °C | 30 to 100 nM | Cn1nccc(NC(=O)N2CCC(Oc3cc(F)ccc3Cl)CC2)c1=O [Example 53, 4-(2-Chloro-5-fluoro-phenoxy)-piperidine-1-carboxylic acid (2-methyl-3-oxo-2,3-dihydro-pyridazin-4-yl)-amide]
102 °C | 30 to 100 nM | Cn1nccc(NC(=O)N2CCC(Oc3cc(C(F)(F)F)ccc3F)CC2)c1=O [Example 54, 4-(2-fluoro-5-trifluoromethyl-phenoxy)-piperidine-1-carboxylic acid (2-methyl-3-oxo-2,3-dihydro-pyridazin-4-yl)-amide]
